The values below come from ChEMBL document CHEMBL4028839, “Synthesis of octapeptin C4 and biological profiling against NDM-1 and polymyxin-resistant bacteria” (Bioorg Med Chem Lett, 2017).

A short description of data set [1]: (§1) Cytotoxicity against HK2 cells after 24 hrs by LDH assay. In kind it is cell-based, HK-2. As to conditions: human, HK-2 cells.
Data set [2] in a line: (§2) Cytotoxicity against human RPTEC after 24 hrs by LDH assay. The data set is classed as cell-based. Particulars: RPTEC cells.
In data set [3] the test system is Pseudomonas aeruginosa. As to the kind of experiment: Antimicrobial activity against Pseudomonas aeruginosa ATCC 27853 measured after 24 hrs. The data set is classed as functional.
Data set [4] deals with Escherichia coli. As to the kind of experiment: Antimicrobial activity against Escherichia coli ATCC 25922 measured after 24 hrs. In kind it is functional.
Data set [5] relates to Klebsiella pneumoniae. In words: Antimicrobial activity against NDM-1 positive Klebsiella pneumoniae BAA-2146 measured after 24 hrs. In kind it is functional.
The nature of data set [6]: (§3) Antimicrobial activity against multi-drug resistant Klebsiella quasipneumoniae subsp. similipneumoniae ATCC 700603 measured after 24 hrs. The data set is classed as functional. As to conditions: ATCC 700603, 24 h.
Data set [7] concerns Pseudomonas aeruginosa. As to the kind of experiment: Antimicrobial activity against polymyxin-resistant Pseudomonas aeruginosa clinical isolate FADDI-PA070 measured after 24 hrs. In kind it is functional.
For data set [8], the system named is Staphylococcus aureus. In words: Antimicrobial activity against meticillin-susceptible Staphylococcus aureus ATCC 25923 measured after 24 hrs. The data set is classed as functional.
Data set [9] relates to Pseudomonas aeruginosa. In words: Antimicrobial activity against polymyxin-resistant Pseudomonas aeruginosa clinical isolate PA9704 measured after 24 hrs. The data set is classed as functional.
Data set [10] has as its system Acinetobacter baumannii. In words: Antimicrobial activity against Acinetobacter baumannii ATCC 19606 measured after 24 hrs. In kind it is functional.
Data set [11] relates to Klebsiella pneumoniae. As to the kind of experiment: Antimicrobial activity against Klebsiella pneumoniae ATCC 13883 measured after 24 hrs. In kind it is functional.
In data set [12] the test system is HK-2. Described as §1. The data set is classed as cell-based. Particulars: human, hk-2, 24 h.
In data set [13] the test system is RPTEC. Described as §2. In kind it is cell-based. Particulars: rptec, 24 h.
The test system of data set [14] is Klebsiella quasipneumoniae subsp. Similipneumoniae. Described as §3. In kind it is functional.
Where [15] appears, read: ATCC 19606 = CIP 70.34 = JCM 6841, 24 h.

Values after ≈ are worked out from the molar mass of the structure shown. Bridge positions count the residues as written; N and C are the ends. Square brackets hold non-standard residues; d marks the D form. Peptide text beside a SMILES is read from it. * marks the point of attachment. Decanoyl(3R-OH) = CCCCCCC[C@@H](O)CC(=O)*; dDab = NCC[C@@H](N)C(=O)O; Dab = NCC[C@H](N)C(=O)O

One may read the CC50 as the concentration at which the toxic effect on the cells reaches its halfway point. Low readings indicate greater toxicity to the cells, high ones lower toxicity to the cells. With `CCCCCCC[C@@H](O)CC(=O)N[C@H](CCN)C(=O)N[C@@H](CCN)C(=O)N[C@@H](CCN)C(=O)N[C@H](Cc1ccccc1)C(=O)N[C@@H](CC(C)C)C(=O)N[C@@H](CCN)C(=O)N[C@@H](CCN)C(=O)N[C@@H](CC(C)C)C(=O)O` [listing 1 of 2 here], the 50% cytotoxic concentration (CC50) at 24 h in [1] came out at 139 µM; in [2], 71 µM.

Broadly, the MIC is the least concentration at which growth counts as inhibited. The low end stands for inhibition by little substance, the high end for a need for much substance. As for `CCCCCCC[C@@H](O)CC(=O)N[C@H](CCN)C(=O)N[C@@H](CCN)C(=O)N[C@@H](CCN)C(=O)N[C@H](Cc1ccccc1)C(=O)N[C@@H](CC(C)C)C(=O)N[C@@H](CCN)C(=O)N[C@@H](CCN)C(=O)N[C@@H](CC(C)C)C(=O)O` [listing 2 of 2 here], the MIC was 4 µg/mL (≈ 3.77 µM) in data set [3] (ATCC 27853, 24 h); 16 µg/mL (≈ 15.1 µM) in data set [4] (ATCC 25922, 24 h); > 32 µg/mL in data set [5] (ATCC BAA-2146, 24 h); 16 µg/mL (≈ 15.1 µM) in [6]; 32 µg/mL (≈ 30.1 µM) in [7] (isolate FADDI-PA070, 24 h); 32 µg/mL (≈ 30.1 µM) in [8] (ATCC 25923, 24 h). Also, the MIC is > 32 µg/mL in [9] (isolate PA9704, 24 h); > 32 µg/mL in data set [10] (setting [15]); > 32 µg/mL in data set [11] (ATCC 13883, 24 h).

With `CCCCCCC[C@@H](O)CC(=O)N[C@H](CCN)C(=O)N[C@H]1CCNC(=O)[C@H](CC(C)C)NC(=O)[C@H](CCN)NC(=O)[C@H](CCN)NC(=O)[C@H](CC(C)C)NC(=O)[C@@H](Cc2ccccc2)NC(=O)[C@H](CCN)NC1=O` ({Decanoyl(3R-OH)}-[dDab][Dab][Dab][dF]L[Dab][Dab]L; lactam 2-C), the minimal inhibitory concentration (MIC) in [3] (ATCC 27853, 24 h) was 2 µg/mL (≈ 1.92 µM); in data set [4] (ATCC 25922, 24 h) it was 4 µg/mL (≈ 3.83 µM); in [5] (ATCC BAA-2146, 24 h), 8 µg/mL (≈ 7.66 µM); in data set [6] it was 8 µg/mL (≈ 7.66 µM); in data set [7] (isolate FADDI-PA070, 24 h), 2 µg/mL (≈ 1.92 µM); in data set [8] (ATCC 25923, 24 h), 16 µg/mL (≈ 15.3 µM). Further, the minimum inhibitory concentration (MIC) was 2 µg/mL (≈ 1.92 µM) in data set [9] (isolate PA9704, 24 h); 4 µg/mL (≈ 3.83 µM) in [10] (setting [15]); 8 µg/mL (≈ 7.66 µM) in data set [11] (ATCC 13883, 24 h). In addition, the CC50 at 24 h in data set [1] stood at 31 µM; in data set [2] it was 39 µM.

On to POLYMYXIN B [listing 1 of 2 here], for which the half-maximal cytotoxic concentration (CC50) is 135 µM in [12] and > 300 µM in data set [13].

For POLYMYXIN B [listing 2 of 2 here], the minimal inhibitory concentration (MIC) in data set [3] was 0.5 µg/mL; in [4] it was 0.25 µg/mL; in data set [5] (ATCC BAA-2146), 0.25 µg/mL; in [14], 0.25 µg/mL; in data set [7] it was 32 µg/mL; in data set [8] it was > 64 µg/mL. The MIC was 128 µg/mL in data set [9], 0.25 µg/mL in data set [10] (ATCC 19606 = CIP 70.34 = JCM 6841) and 0.25 µg/mL in data set [11].
